# Assay results published in PubChem BioAssay (NCI).
#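 1) Cells in 96-well plates. 2) Compound, 48 h, 5 concentrations. 3) Linear interpolation between surrounding doses. 4) Unreached endpoint = highest concentration. TGI: total growth inhibition.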
# How the values were obtained:
# Test in all cases: inhibition of tumour cell growth, NCI panel, 48 h
# [1] = system: 786-0 renal
# [2] = system: A549 NSCLC
# [3] = system: ACHN renal
# [4] = system: HCC-2998 colon
# [5] = system: HOP-62 NSCLC
# [6] = system: HS 578T breast
# [7] = system: HT29 colon
# [8] = system: K-562 leukemia
# [9] = system: M14 melanoma
# [10] = system: MCF7 breast
# [11] = system: MDA-MB-231 breast
# [12] = system: MDA-N
# [13] = system: MOLT-4 leukemia
# [14] = system: NCI-H226 lung
# [15] = system: NCI/ADR-RES ovarian
# [16] = system: OVCAR-5 ovarian
# [17] = system: OVCAR-8 ovarian
# [18] = system: SF-268 CNS
# [19] = system: TK-10 renal
# [20] = system: UACC-62 melanoma
compound,measurement,setting,value
CC(NCc1c(O)ccc2ccc(=O)oc12)C(=O)O (stereo not given),TGI,[1],> 100 µM
same,TGI,[2],> 100 µM
same,TGI,[3],> 100 µM
same,TGI,[4],> 100 µM
same,TGI,[5],> 100 µM
same,TGI,[6],> 100 µM
same,TGI,[7],> 100 µM
same,TGI,[8],> 100 µM
same,TGI,[9],> 100 µM
same,TGI,[10],> 100 µM
same,TGI,[11],> 100 µM
same,TGI,[12],> 100 µM
same,TGI,[13],> 100 µM
same,TGI,[14],> 100 µM
same,TGI,[15],> 100 µM
same,TGI,[16],> 100 µM
same,TGI,[17],> 100 µM
same,TGI,[18],> 100 µM
same,TGI,[19],> 100 µM
same,TGI,[20],> 100 µM
C=C1[C@H](OCC(C)C)[C@@H](O)[C@@H](OC(=O)c2cccnc2)C(C)(C)/C=C/[C@H](C)[C@H](OC(C)=O)[C@@]2(O)C[C@@](C)(OC(C)=O)[C@H](OC(=O)c3ccccc3)[C@@H]2[C@H]1OC(C)=O,TGI,[1],> 5 µM
same,TGI,[2],> 5 µM
same,TGI,[3],2.87 µM
same,TGI,[4],1.59 µM
same,TGI,[5],2.26 µM
same,TGI,[6],> 2.39 µM
same,TGI,[7],1.17 µM
same,TGI,[8],> 3.36 µM
same,TGI,[9],> 4.49 µM
same,TGI,[10],> 5 µM
same,TGI,[11],> 5 µM
same,TGI,[12],> 5 µM
same,TGI,[13],> 2.79 µM
same,TGI,[14],4.57 µM
same,TGI,[15],> 3.25 µM
same,TGI,[16],> 5 µM
same,TGI,[17],> 3.28 µM
same,TGI,[18],> 3.24 µM
same,TGI,[19],> 5 µM
same,TGI,[20],> 5 µM
COC(=O)c1ccccc1CC1Cc2cc3c(cc2C1=O)CCC3 (stereo not given),TGI,[1],89.3 µM
same,TGI,[2],72.8 µM
same,TGI,[3],> 100 µM
same,TGI,[4],> 100 µM
same,TGI,[5],> 94.4 µM
same,TGI,[6],86.6 µM
same,TGI,[7],41.4 µM
same,TGI,[8],44.5 µM
same,TGI,[9],44.5 µM
same,TGI,[10],65.3 µM
same,TGI,[11],80.2 µM
same,TGI,[12],10.7 µM
same,TGI,[13],33.9 µM
same,TGI,[14],63.7 µM
same,TGI,[15],21.8 µM
same,TGI,[16],> 90.8 µM
same,TGI,[17],> 80.8 µM
same,TGI,[18],> 100 µM
same,TGI,[19],79.7 µM
same,TGI,[20],69.6 µM
O=C(O)CC(NC(=O)/C(=C/c1ccccc1)NC(=O)c1ccccc1)C(=O)O (stereo not given),TGI,[1],> 100 µM
same,TGI,[2],> 100 µM
same,TGI,[3],> 100 µM
same,TGI,[4],> 100 µM
same,TGI,[5],> 100 µM
same,TGI,[6],> 100 µM
same,TGI,[7],> 100 µM
same,TGI,[8],> 100 µM
same,TGI,[9],> 100 µM
same,TGI,[10],> 100 µM
same,TGI,[11],> 100 µM
same,TGI,[12],> 100 µM
same,TGI,[13],> 100 µM
same,TGI,[14],> 100 µM
same,TGI,[15],> 100 µM
same,TGI,[16],> 100 µM
same,TGI,[17],> 100 µM
same,TGI,[18],> 100 µM
same,TGI,[19],> 100 µM
same,TGI,[20],> 100 µM
O/N=C(/CC(O)(C(F)(F)F)C(F)(F)F)c1ccccc1,TGI,[1],> 10 µM
same,TGI,[2],> 10 µM
same,TGI,[3],> 10 µM
same,TGI,[4],> 10 µM
same,TGI,[5],> 10 µM
same,TGI,[6],> 10 µM
same,TGI,[7],> 10 µM
same,TGI,[8],> 10 µM
same,TGI,[9],> 10 µM
same,TGI,[10],> 10 µM
same,TGI,[11],> 10 µM
same,TGI,[12],> 10 µM
same,TGI,[13],> 10 µM
same,TGI,[14],> 10 µM
same,TGI,[15],> 10 µM
same,TGI,[16],> 10 µM
same,TGI,[17],> 10 µM
same,TGI,[18],> 10 µM
same,TGI,[19],> 10 µM
same,TGI,[20],> 10 µM
O=C1CSC(c2ccccc2)N1c1ccc(-n2c(-c3ccccc3)nc3ccccc3c2=O)cc1 (stereo not given),TGI,[1],> 100 µM
same,TGI,[2],> 100 µM
same,TGI,[3],> 100 µM
same,TGI,[4],> 100 µM
same,TGI,[5],> 100 µM
same,TGI,[6],> 100 µM
same,TGI,[7],> 100 µM
same,TGI,[8],> 100 µM
same,TGI,[9],> 100 µM
same,TGI,[10],> 100 µM
same,TGI,[11],> 100 µM
same,TGI,[12],> 100 µM
same,TGI,[13],> 100 µM
same,TGI,[14],> 100 µM
same,TGI,[15],> 100 µM
same,TGI,[16],> 100 µM
same,TGI,[17],> 100 µM
same,TGI,[18],> 100 µM
same,TGI,[19],> 100 µM
same,TGI,[20],> 100 µM
CON(C)C(=O)[C@H]1C[C@@]1(C)CO,TGI,[1],> 100 µM
same,TGI,[2],> 100 µM
same,TGI,[3],> 100 µM
same,TGI,[4],> 100 µM
same,TGI,[5],> 100 µM
same,TGI,[6],> 100 µM
same,TGI,[7],> 100 µM
same,TGI,[8],> 100 µM
same,TGI,[9],> 100 µM
same,TGI,[10],> 100 µM
same,TGI,[11],> 100 µM
same,TGI,[12],> 100 µM
same,TGI,[13],> 100 µM
same,TGI,[14],> 100 µM
same,TGI,[15],> 100 µM
same,TGI,[16],> 100 µM
same,TGI,[17],> 100 µM
same,TGI,[18],> 100 µM
same,TGI,[19],> 100 µM
same,TGI,[20],> 100 µM
CC(=O)OCC1OC(c2c(OC(C)=O)cc(C)c3c(=O)cc(/C(C(C)=O)=C(\C)O)oc23)C(OC(C)=O)C(OC(C)=O)C1OC(C)=O (stereo not given),TGI,[1],> 100 µM
same,TGI,[2],> 100 µM
same,TGI,[3],> 100 µM
same,TGI,[4],> 100 µM
same,TGI,[5],> 100 µM
same,TGI,[6],> 100 µM
same,TGI,[7],> 100 µM
same,TGI,[8],> 100 µM
same,TGI,[9],> 100 µM
same,TGI,[10],> 100 µM
same,TGI,[11],> 100 µM
same,TGI,[12],> 100 µM
same,TGI,[13],> 100 µM
same,TGI,[14],> 100 µM
same,TGI,[15],> 100 µM
same,TGI,[16],> 100 µM
same,TGI,[17],> 100 µM
same,TGI,[18],> 100 µM
same,TGI,[19],> 100 µM
same,TGI,[20],> 100 µM
O=C(O)C1(Cc2ccccc2)Cc2cc3c(cc2C1)CCC3,TGI,[1],> 100 µM
same,TGI,[2],> 100 µM
same,TGI,[3],> 100 µM
same,TGI,[4],> 100 µM
same,TGI,[5],> 100 µM
same,TGI,[6],> 100 µM
same,TGI,[7],> 100 µM
same,TGI,[8],> 100 µM
same,TGI,[9],> 100 µM
same,TGI,[10],> 100 µM
same,TGI,[11],> 100 µM
same,TGI,[12],> 100 µM
same,TGI,[13],> 100 µM
same,TGI,[14],> 100 µM
same,TGI,[15],> 100 µM
same,TGI,[16],> 100 µM
same,TGI,[17],> 100 µM
same,TGI,[18],> 100 µM
same,TGI,[19],> 100 µM
same,TGI,[20],> 100 µM
Cc1c2c(nc3ccccc13)C(=O)c1cccnc1C2=O,TGI,[1],> 100 µM
same,TGI,[2],21.7 µM
same,TGI,[3],> 100 µM
same,TGI,[4],> 100 µM
same,TGI,[5],> 100 µM
same,TGI,[6],> 100 µM
same,TGI,[7],54.2 µM
same,TGI,[8],> 100 µM
same,TGI,[9],48.8 µM
same,TGI,[10],30.1 µM
same,TGI,[11],> 100 µM
same,TGI,[12],3.16 µM
same,TGI,[13],64.7 µM
same,TGI,[14],> 100 µM
same,TGI,[15],> 100 µM
same,TGI,[16],> 100 µM
same,TGI,[17],77.9 µM
same,TGI,[18],> 100 µM
same,TGI,[19],> 100 µM
same,TGI,[20],10.1 µM
Cc1cc2nc(C=C(C(F)(F)F)C(F)(F)F)sc2cc1C,TGI,[1],5.17 µM
same,TGI,[2],26.7 µM
same,TGI,[3],7.48 µM
same,TGI,[4],8.36 µM
same,TGI,[5],7.59 µM
same,TGI,[6],9.69 µM
same,TGI,[7],9.93 µM
same,TGI,[8],> 100 µM
same,TGI,[9],3.31 µM
same,TGI,[10],12.5 µM
same,TGI,[11],23.9 µM
same,TGI,[12],> 19.8 µM
same,TGI,[13],> 100 µM
same,TGI,[14],6.79 µM
same,TGI,[15],14.6 µM
same,TGI,[16],8.66 µM
same,TGI,[17],4.4 µM
same,TGI,[18],11.3 µM
same,TGI,[19],5.91 µM
same,TGI,[20],4.98 µM
